According to ChEMBL document CHEMBL2390895, “Design, synthesis and structure activity relationships of spirocyclic compounds as potent CCR1 antagonists” (Bioorg Med Chem Lett, 2013):

How the values were obtained:
[1] = Clearance in human hepatocytes assessed per 10^6 cells; assay type: ADME, cell-based, Hepatocyte; conditions: read-out: CLH
[2] = Clearance in rat hepatocytes assessed per 10^6 cells; assay type: ADME, cell-based, Hepatocyte; conditions: read-out: CLH

hepatocyte CLint [1] [µL/min/1e6 cells]	hepatocyte CLint [2] [µL/min/1e6 cells]	SMILES
9.6	23	O=C(c1ccc(O)cc1OC[C@@H](O)CN1CCC2(CC1)Cc1cc(Cl)ccc1O2)N1CCCC1
< 3	6.7	O=C(c1ccc(O)cc1OC[C@@H](O)CN1CCC2(CC1)Cc1cc(Cl)ccc1O2)N1CC[C@H](O)C1
< 4.6	33	CNC(=O)c1ccc(O)cc1OC[C@@H](O)CN1CCC2(CC1)Cc1cc(Cl)ccc1O2
14		O=C(c1ccc(O)cc1OC[C@@H](O)CN1CCC2(CC1)Cc1cc(Cl)ccc1O2)N1CCCCC1

Continued, compound first:

SMILES	hepatocyte CLint [1] [µL/min/1e6 cells]	hepatocyte CLint [2] [µL/min/1e6 cells]
Cc1ccc(C(=O)N2CC[C@H](O)C2)c(OC[C@@H](O)CN2CCC3(CC2)Cc2cc(Cl)ccc2O3)c1	11	
O=C(c1cc(Cl)c(O)cc1OC[C@@H](O)CN1CCC2(CC1)Cc1cc(Cl)ccc1O2)N1CC[C@H](O)C1	< 3	8.1
CNC(=O)c1ccc(O)cc1OC[C@@H](O)CN1CCC2(CC1)Cc1cc(F)ccc1O2	26	22
COc1ccc(C(=O)NC2CC2)c(OC[C@@H](O)CN2CCC3(CC2)Cc2cc(Cl)ccc2O3)c1	15	
O=C(NC1CC1)c1ccccc1OC[C@@H](O)CN1CCC2(CC1)Cc1cc(Cl)ccc1O2	5.2	45
O=C(NC1CC1)c1ccc(O)cc1OC[C@@H](O)CN1CCC2(CC1)Cc1cc(Cl)ccc1O2	10.6	28
O=C(c1ccc(F)cc1OC[C@@H](O)CN1CCC2(CC1)Cc1cc(Cl)ccc1O2)N1CC[C@H](O)C1	6.8	< 4
O=C(NC1CC1)c1ccc(F)cc1OC[C@@H](O)CN1CCC2(CC1)Cc1cc(Cl)ccc1O2	4.6	20
Cc1ccc(C(=O)N2CC[C@H](O)C2)c(OC[C@@H](O)CN2CCC3(CC2)Cc2cc(F)ccc2O3)c1	10	
